Assay results as given in patent US10364216B2, “Alkenyl sulfate ester or salt thereof” (Kao Corporation, priority 2013, dated 2019).
Structures can show the parent of a compound that is named as a salt.

Tests used:
Format in all cases: in vivo, human
[1] = Evaluation of sweetness (1)/(2): presence or absence of sweetness judged by examiners
Protocol: Trans-3-octenyl sulfate was dissolved in water to be 1 wt %, which was taken as a test sample. Six examiners kept 50 μL of the prepared test sample in their mouth, and then drunk some water, and judged for presence or absence of sweetness.
Cis-3-octenyl sulfate was dissolved in water to 1 wt %, which was taken as a test sample. Four examiners kept 50 μL of the prepared test sample in their mouth, and then drunk some water, and judged presence or absence of sweetness.

[2] = Evaluation of sweetness (3)/(4): sweetness intensity over time against sucrose standard solutions
Protocol: (§1) To seven examiners, 4 kinds of 10 mL aqueous sucrose standard solutions (2.5, 5.0, 7.5 and 10.0 wt %) were presented. The examiners kept each of the solutions in their mouth for 5 seconds or so, and then spat the solution out, and were asked to consider the sweetness intensity at that time (0 to 15) to be 2.5, 5, 7.5 and 10, respectively. Next, the examiners kept 10 mL solution of 10 mM trans-3-octenyl sulfate in their mouth for 5 seconds or so, and then spat the solution out, and compared the sweetness intensity at that time with that of the aqueous sucrose standard solution, and evaluated the sweetness intensity with a number in a range of 0 to 15. Then, the examiners kept 10 mL pure water for 5 minutes at an interval of 30 seconds, and then spat the solution out, and evaluated the sweetness intensity at that time in the same manner.
as §1, with “four” for “4”, “cis-3-octenyl” for “trans-3-octenyl”, “water in their mouth” for “water”

[3] = Action of reinforcing sweetness (previous intake of trans-3-octenyl sulfate); conditions: 5 mM, 60 seconds before sucralose or glycyrrhizin 0.25 mM
Protocol: To six examiners, 4 kinds of 10 mL aqueous solutions of sucrose standard (2.5, 5.0, 7.5 and 10.0 wt %) were presented. The examiners kept each of the solutions in their mouth for 5 seconds or so, and then spat the solution out, and were asked to consider the sweetness intensity at that time (0 to 15) to be 2.5, 5, 7.5 and 10, respectively. Next, the examiners kept 10 mL aqueous solution of sucralose (0.25 mM) in their mouth for 5 seconds or so without knowing the kind and the concentration of the sweetener, and then spat the solution out, and compared the sweetness intensity at that time with that of the aqueous sucrose standard solution, and evaluated the sweetness intensity with a number in a range of 0 to 15. Subsequently, the examiners kept 10 mL solution of 5 mM trans-3-octenyl sulfate in advance in their mouth for 5 seconds or so in advance, and then spat the solution out, and after passage of 60 seconds, the examiners kept 10 mL aqueous solution of sucralose (0.25 mM) in their mouth for 5 seconds or so, and then spat the solution out, and compared the sweetness intensity at that time with that of the aqueous sucrose standard solution, and evaluated the sweetness intensity with a number in a range of 0 to 15.
To six examiners, 4 kinds of 10 mL aqueous sucrose standard solutions (2.5, 5.0, 7.5 and 10.0 wt %) were presented. The examiners kept each of the solutions in their mouth for 5 seconds or so, and then spat the solution out, and were asked to consider the sweetness intensity at that time (0 to 15) to be 2.5, 5, 7.5 and 10, respectively. Next, the examiners kept 10 mL aqueous solution of glycyrrhizin (0.25 mM) in their mouth for 5 seconds or so without knowing the kind and the concentration of the sweetener, and then spat the solution out, and compared the sweetness intensity at that time with that of the aqueous sucrose standard solution, and evaluated the sweetness intensity with a number in a range of 0 to 15. Subsequently, the examiners kept 10 mL solution of 5 mM trans-3-octenyl sulfate in their mouth for 5 seconds or so in advance, and then spat the solution out, and after passage of 60 seconds, the examiners kept 10 mL aqueous solution of glycyrrhizin (0.25 mM) in their mouth for 5 seconds or so, and then spat the solution out, and compared the sweetness intensity at that time with that of the aqueous sucrose standard solution, and evaluated the sweetness intensity with a number in a range of 0 to 15.

[4] = 1 wt % in water, 50 μL kept in mouth, then water (13 ml), six examiners (trans), four examiners (cis)

SMILES: CCCC/C=C/CCOS(=O)(=O)O [trans-3-octenyl sulfate]
- No sweetness felt (number of examiners) [1, 4]: 0
- Sweetness felt (number of examiners) [1, 4]: 6
- Duration of sweetness ([1]; 1 wt %, 50 μL, then water): the sweetness lasted for a certain time
- Examiners who recognized the sweetness by virtue of intake of water ([2]; 10 mL of 10 mM solution, then pure water every 30 seconds): Seven out of the seven
- Duration of sweetness ([2]; 10 mL of 10 mM solution, then pure water every 30 seconds for 5 minutes): the sweetness lasted for a certain time
- Sweetness intensity (mean) ([2]; Time 0 minute, 10 mL of 10 mM solution kept 5 seconds, scale 0 to 15 vs sucrose standards, seven examiners): 0.0
- Sweetness intensity (mean) ([2]; Time 0.5 minute, on keeping 10 mL pure water, after 10 mM solution, scale 0 to 15): 1.7
- Sweetness intensity (mean) ([2]; Time 1 minute, on keeping 10 mL pure water, after 10 mM solution, scale 0 to 15): 3.6
- Sweetness intensity (mean) ([2]; Time 1.5 minute, on keeping 10 mL pure water, after 10 mM solution, scale 0 to 15): 3.9
- Sweetness intensity (mean) ([2]; Time 2 minute, on keeping 10 mL pure water, after 10 mM solution, scale 0 to 15): 3.6
- Sweetness intensity (mean) ([2]; Time 2.5 minute, on keeping 10 mL pure water, after 10 mM solution, scale 0 to 15): 3.0
- Sweetness intensity (mean) ([2]; Time 3 minute, on keeping 10 mL pure water, after 10 mM solution, scale 0 to 15): 2.1
- Sweetness intensity (mean) ([2]; Time 3.5 minute, on keeping 10 mL pure water, after 10 mM solution, scale 0 to 15): 1.1
- Sweetness intensity (mean) ([2]; Time 4 minute, on keeping 10 mL pure water, after 10 mM solution, scale 0 to 15): 0.8
- Sweetness intensity (mean) ([2]; Time 4.5 minute, on keeping 10 mL pure water, after 10 mM solution, scale 0 to 15): 0.5
- Sweetness intensity (mean) ([2]; Time 5 minute, on keeping 10 mL pure water, after 10 mM solution, scale 0 to 15): 0.6
- Effect of previous intake on the sweetness of the sweetener [3]: effect of reinforcing the sweetness of the sweetener
